{
  "source": "patent US10662225B2",
  "about": "“Backbone cyclized inhibitory peptides of myeloid differentiation factor 88 (MyD88)” (Yissum Research Development Company of the Hebrew …, priority 2016, dated 2020)",
  "key": {"MyD88": {"target": "MyD88 (Homo sapiens, UniProt Q99836)", "sequence (Q99836 whole entry, species assumed)": "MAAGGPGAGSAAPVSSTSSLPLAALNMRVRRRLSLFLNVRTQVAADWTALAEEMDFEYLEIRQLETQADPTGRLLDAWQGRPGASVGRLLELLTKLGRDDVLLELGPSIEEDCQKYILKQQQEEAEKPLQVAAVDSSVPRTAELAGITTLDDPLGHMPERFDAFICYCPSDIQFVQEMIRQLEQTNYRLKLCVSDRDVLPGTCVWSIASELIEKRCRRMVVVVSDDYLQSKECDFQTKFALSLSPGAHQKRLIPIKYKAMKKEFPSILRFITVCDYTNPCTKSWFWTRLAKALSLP", "assay": "Comparison of linear 7-mer peptide with and without N-terminal myristoyl group (assay not specified)", "details": "versus linear MyD88 inhibitor 7-mer peptide", "source_text": "The importance of additional moieties to enhance cell penetration is further evaluated. […] Therefore, backbone cyclic peptides with addition of a myristoyl group or other moieties designed to enhance cell penetration are also synthesized and tested for binding, inhibition, stability and permeability."}, "MyD88 dimerization": {"target": "T1, MyD88 dimerization (Homo sapiens, UniProt Q99836)", "T1 construct": "constructs encoding HA-tagged full length MyD88 and Flag-tagged full length MyD88; expressed in transfected cells; host or cells: HEK293", "assay": "Co-immunoprecipitation of Flag-MyD88 with HA-MyD88 in HEK293 cells", "format": "cell-based", "details": "HEK293, IL-1 stimulation; 4×4MyDI at 20, 2, 0.2 μM; Myr-4×4MyDI at 0.2 or 2000 nM", "method": "FIG. 10. 4×4MyDI blocks MyD88 dimerization. HEK293 cells were transfected with two plasmids, one encoding HA-MyD88 and the other encoding FLAG-MyD88 and after 48 hours the cells were either untreated (cont) or treated with 20 μM of the linear MyDI peptide, the scrambled version of the linear MyDI peptide (SEQ ID NO: 5,), or the 4×4MyDI at 20, 2, or 0.2 μM. After 3 h of treatment, cells were stimulated with recombinant human IL-1 (20 ng/ml) for 30 min and then lysed. Whole cell lysates (WCL) were immunoprecipitated with anti-HA beads (Thermo-Scientific) for 30 min and proteins were eluted with glycine Ph 2.0, neutralized, and loaded on an acrylamide gel for analysis. Proteins were transferred to nitrocellulose and the amount of Flag-MyD88 that co-precipitated with HA-MyD88 was detected by immunoblotting (IB) with anti-Flag antibody.\nFIGS. 14A and 14B. […] Proteins were transferred to nitrocellulose and the amount of FLAG-MyD88 that co-precipitated with HA-MyD88 was detected by immunoblotting (IB) with anti-FLAG antibody. […] Percent inhibition of co-immunoprecipitation was calculated by comparing densitometry of bands in the treated lanes to control. […]\nTLR and IL-1 receptor signaling proceeds through a multimeric protein signaling complex (the “Myddosome”) that is initiated by MyD88 homodimerization. […] Immunoprecipitated protein was eluted and analyzed by immunoblot using an antibody to Flag. […]"}, "NFkB activation": {"tested_on": "NFkB activation", "assay": "NFkB-luciferase reporter in RAW 264.7 macrophages stimulated with LPS", "format": "cell-based, mouse", "details": "RAW 264.7 NFkB-luc, 4 hours", "method": "FIG. 13. 4×4MyDI and Myr4×4MyDI block NFkB induction in response to LPS stimulation of RAW 264.7 NFkB-luc cells. RAW 264.7 murine macrophages were transfected with an NFkB-luciferase reporter gene and stimulated with LPS in the absence or presence of increasing concentrations of the inhibitors. After 4 hours cells were lysed and luminescence was recorded using a Tecan plate reader. BG denotes background.\nIn this assay the mouse macrophage RAW264.7 cell line is transfected with an NFkB-luciferase reporter construct and then cells are stimulated by exposure to bacterial LPS and light emission is measured after addition of luciferase substrate."}, "[1]": {"tested_on": "OCI-LY3 (MyD88 L265P) cells", "assay": "Proliferation of lymphoma cells (Promega CellTiter viability assay)", "format": "cell-based, human", "details": "48 h; compared with OCI-LY19 (MyD88 WT)", "method": "FIGS. 18A and 18B. 4×4MyDI and Myr-4×4MyDI block proliferation of Ly3 lymphoma cells that carry the L265P oncogenic mutation in MyD88. Cell lines OCI-LY3 (MyD88^L265P) and OCI-LY19 (MyD88^WT) were grown in RPMI supplemented with 10% FCS. Cells were counted and plated at identical concentrations in triplicate wells of 96 well plates and decreasing concentrations of 4×4MyDI […], or Myr-4×4MyDI (19B), was added to the wells. After 48 h cell viability was tested using the Promega CellTiter viability assay according to the manufacturer's instructions. Percent inhibition was calculated as [(1-OD of well with inhibitor/OD of well without inhibitor)*1001. Negative values in A represent enhanced growth in the presence of the inhibitor.\nGenomic DNA was prepared from the human lymphoma cell lines OCI-LY3 (MyD88^L265P) and OCI-LY19 (MyD88^WT) to confirm the presence of the activating L265P mutation in the OCI-Ly3 cells (and the WT sequence in the OCI-Ly19 cells). The MyD88 region was amplified using the forward and reverse primers GGGATATGCTGAACTAAGTTGCCAC (SEQ ID NO: 7) and GACGTGTCTGTGAAGTTGGCATCTC (SEQ ID NO: 8), respectively, as described in Xu, L. et al Blood (2013) 121(11): 2051-2058. The PCR product was sequenced to confirm the mutation.\nThe cell lines were incubated alone or with increasing concentrations of the 4×4MyDI. […]"}},
  "note": "Numbered stars: 1 amine (or outer) side, 2 acyl side, 3 side chain; on linkers, the order of the positions; unused ones are H or OH. Bridge positions count the residues as written; N and C are the ends. Square brackets hold non-standard residues; d marks the D form. Ends that are not written are not given here. Peptide text beside a SMILES is read from it. * marks the point of attachment. Myristoyl = CCCCCCCCCCCCCC(=O)*; CO = O=C([*:1])[*:2]; Nlys = NCCCCNCC(=O)O",
  "data": [
    {"compound": "CCCCCCCCCCCCCC(=O)N[C@@H](CCCNC(=N)N)C(=O)N[C@@H](CC(=O)O)C(=O)N[C@H](C(=O)N[C@@H](CC(C)C)C(=O)N1CCC[C@H]1C(=O)NCC(=O)N[C@H](C(=O)O)[C@@H](C)O)C(C)C", "note": "(Myristoyl-RDVLPGT-OH; N-terminus and C-terminus assumed)", "values": [
      {"measurement": "peptide stability on addition of myristoyl group", "setting": "MyD88", "result": "without affecting peptide stability"}
    ]},
    {"compound": "Myr-4×4MyDI: 4×4MyDI backbone cyclic peptide with a myristoyl group (formula V) (Myristoyl-[Nlys]RDVL[Nlys]GT; bridge 1-6 via CO)", "values": [
      {"measurement": "MyD88 dimerization (Flag-MyD88 co-precipitated with HA-MyD88)", "setting": "MyD88 dimerization", "result": "at least as active as 4×4MyDI"},
      {"measurement": "block of NFkB activation", "setting": "NFkB activation", "result": "greater activity than the 4×4MyDI"},
      {"measurement": "proliferation of OCI-Ly3 cells", "setting": "[1]", "result": "specifically blocked proliferation"}
    ]}
  ]
}
